# Data from ChEMBL document CHEMBL2016455, “5-Benzothiazole substituted pyrimidine derivatives as HCV replication (replicase) inhibitors” (Bioorg Med Chem Lett, 2012).
# Experiments:
# Hepatitis C virus = experiment: Antiviral activity against Hepatitis C virus isolate con1 1b infected in human hepatoma cells replicon cells after 3 days by RT-PCR analysis; assay type: functional, organism-based, Hepacivirus hominis, genotype 1b Con1
# Liver = experiment: Drug uptake in rat liver per mg tissue at 10 mg/kg, po after 6 hrs; assay type: ADME, organism-based; parameters: dose 10 mg/kg, route oral; settings: in vivo
# [1] = AUC (0 to 24 hrs) in rat at 10 mg/kg, po; assay type: ADME, organism-based; parameters: time < 24 hr, dose 10 mg/kg, route oral; settings: plasma
# [2] = Cytotoxicity against human hepatoma cells after 3 days by MTS assay; assay type: cell-based; settings: for CC50 at 72 h: human hepatoma cells
# [3] = Cytotoxicity against human hepatoma cells assessed as decrease in RNA level after 3 days by RT-PCR analysis; assay type: cell-based; settings: for CC50 at 72 h: human hepatoma cells
# [4] = Drug uptake in rat liver at 10 mg/kg, po after 4 hrs; assay type: ADME, organism-based; parameters: dose 10 mg/kg, route oral; settings: read-out: Drug uptake
# [5] = AUC (0 to 6 hrs) in rat at 10 mg/kg, po; assay type: ADME, organism-based; parameters: time < 6 hr, dose 10 mg/kg, route oral; settings: plasma
# [6] = AUC (0 to 24 hrs) in rat at 2 mg/kg, iv and 10 mg/kg, po; assay type: ADME, organism-based; settings: plasma
# [7] = Oral bioavailability in rat at 10 mg/kg; assay type: ADME, organism-based; settings: in vivo
# [8] = AUC (0 to 24 hrs) in monkey at 1 mg/kg, iv and 3 mg/kg, po; assay type: ADME, organism-based, Macaca mulatta; settings: rhesus monkey, plasma
# [9] = Oral bioavailability in monkey at 3 mg/kg; assay type: ADME, organism-based, Macaca mulatta; settings: rhesus monkey, in vivo
# [10] = AUC (0 to 24 hrs) in dog at 1 mg/kg, iv and 3 mg/kg, po; assay type: ADME, organism-based, Canis lupus familiaris; settings: plasma
# [11] = Oral bioavailability in dog at 3 mg/kg; assay type: ADME, organism-based, Canis lupus familiaris; settings: in vivo
# Cytochrome P450 2D6 = Cytochrome P450 2D6 (Homo sapiens, UniProt P10635); experiment: Inhibition of CYP2D6; assay type: ADME
# Chain of Cytochrome P450 2D6 (P10635 whole entry): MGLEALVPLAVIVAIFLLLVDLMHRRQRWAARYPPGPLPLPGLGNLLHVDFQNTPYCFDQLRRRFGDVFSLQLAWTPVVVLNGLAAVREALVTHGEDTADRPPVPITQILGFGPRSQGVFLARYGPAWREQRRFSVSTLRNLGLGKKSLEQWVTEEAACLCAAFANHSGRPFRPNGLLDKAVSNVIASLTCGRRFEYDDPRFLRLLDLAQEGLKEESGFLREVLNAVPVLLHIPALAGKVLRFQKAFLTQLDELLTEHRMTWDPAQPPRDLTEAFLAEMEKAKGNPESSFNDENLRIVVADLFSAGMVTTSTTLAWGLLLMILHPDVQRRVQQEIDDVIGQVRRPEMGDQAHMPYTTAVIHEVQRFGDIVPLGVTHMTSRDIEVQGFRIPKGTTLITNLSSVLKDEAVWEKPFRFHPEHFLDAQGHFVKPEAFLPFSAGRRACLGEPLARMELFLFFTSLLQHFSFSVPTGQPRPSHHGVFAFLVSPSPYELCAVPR
# Cytochrome P450 3A4 = Cytochrome P450 3A4 (Homo sapiens, UniProt P08684); experiment: Inhibition of CYP3A4; assay type: ADME
# Chain of Cytochrome P450 3A4 (P08684 whole entry): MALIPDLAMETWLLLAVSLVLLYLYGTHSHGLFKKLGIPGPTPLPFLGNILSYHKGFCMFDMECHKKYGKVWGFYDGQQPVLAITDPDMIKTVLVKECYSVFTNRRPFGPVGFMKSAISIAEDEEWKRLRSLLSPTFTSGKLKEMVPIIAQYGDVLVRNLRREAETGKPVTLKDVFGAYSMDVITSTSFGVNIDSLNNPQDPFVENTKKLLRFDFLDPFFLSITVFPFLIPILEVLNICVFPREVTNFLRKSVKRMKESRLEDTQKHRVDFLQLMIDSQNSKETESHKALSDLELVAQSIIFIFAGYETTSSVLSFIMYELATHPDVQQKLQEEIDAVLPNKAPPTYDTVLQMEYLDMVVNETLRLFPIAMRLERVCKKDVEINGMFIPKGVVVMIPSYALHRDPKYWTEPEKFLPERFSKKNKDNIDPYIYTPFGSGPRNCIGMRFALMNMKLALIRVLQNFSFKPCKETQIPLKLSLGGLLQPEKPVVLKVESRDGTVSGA
# Cytochrome P450 2C9 = Cytochrome P450 2C9 (Homo sapiens, UniProt P11712); experiment: Inhibition of CYP2C9; assay type: ADME
# Chain of Cytochrome P450 2C9 (P11712 whole entry): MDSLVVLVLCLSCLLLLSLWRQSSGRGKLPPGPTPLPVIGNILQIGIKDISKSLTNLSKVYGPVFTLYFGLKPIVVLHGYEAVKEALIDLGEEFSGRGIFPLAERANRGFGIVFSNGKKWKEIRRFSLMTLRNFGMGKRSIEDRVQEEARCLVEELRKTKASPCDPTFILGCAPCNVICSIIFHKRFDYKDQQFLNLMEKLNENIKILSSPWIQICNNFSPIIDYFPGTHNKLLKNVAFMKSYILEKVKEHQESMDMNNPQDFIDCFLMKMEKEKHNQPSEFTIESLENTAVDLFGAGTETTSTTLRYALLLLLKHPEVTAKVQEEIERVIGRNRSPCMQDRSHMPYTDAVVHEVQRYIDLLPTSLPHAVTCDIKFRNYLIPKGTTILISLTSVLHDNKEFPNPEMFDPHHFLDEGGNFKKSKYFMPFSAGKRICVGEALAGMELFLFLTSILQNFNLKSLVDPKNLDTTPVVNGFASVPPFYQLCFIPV
# [12] = Selectivity ratio of CC50 for human hepatoma cells to EC50 for Hepatitis C virus isolate con1 1b; assay type: ADME; settings: read-out: Ratio CC50/EC50
# [13] = Hepatitis C virus, genotype 1b Con1, 72 h
SMILES,EC50 (Hepatitis C virus; [13]),Drug uptake (Liver),CC50 at 72 h [2],CC50 at 72 h [3],AUC(0-t) at 6 h [5],also measured
Cc1nc(N(C)C)nc(N[C@@H]2C[C@H](CO)[C@@H](O)[C@H]2O)c1-c1nc2ccccc2s1,140 nM,1030 ng/g,16 µM,18 µM,–,AUC(0-t) at 24 h [1]: 11 µM·h
Cc1nc(NCC(F)(F)F)nc(N[C@@H]2C[C@H](CO)[C@@H](O)[C@H]2O)c1-c1nc2ccccc2s1,–,–,> 25 µM,> 25 µM,–,EC50 (Hepatitis C virus): 800 nM; AUC(0-t) at 24 h [1]: 7 µM·h; concentration at 4 h [4]: 8420 ng/g
Cc1nc(NCc2ccncc2)nc(N[C@@H]2C[C@H](CO)[C@@H](O)[C@H]2O)c1-c1nc2ccccc2s1,30 nM,100 ng/g,9 µM,7 µM,0.1 µM·h,–
Cc1nc(NCCN2CCOCC2)nc(N[C@@H]2C[C@H](CO)[C@@H](O)[C@H]2O)c1-c1nc2ccccc2s1,40 nM,370 ng/g,25 µM,25 µM,0.2 µM·h,–
Cc1nc(N[C@@H](C)C(F)(F)F)nc(N[C@@H]2C[C@H](CO)[C@@H](O)[C@H]2O)c1-c1nc2ccccc2s1,140 nM,6570 ng/g,> 25 µM,> 25 µM,13 µM·h,–
Cc1nc(Nc2ccccc2)nc(N[C@@H]2C[C@H](CO)[C@@H](O)[C@H]2O)c1-c1nc2ccccc2s1,280 nM,970 ng/g,> 25 µM,> 25 µM,1.6 µM·h,–
Cc1nc(NCC(F)(F)F)nc(N[C@@H]2C[C@H](CO)[C@@H](O)[C@H]2O)c1-c1nc2ccccc2s1.Cl,–,–,–,–,–,EC50 (Hepatitis C virus): 30 nM; AUC(0-t) [6]: 7 µM·h; bioavailability [7]: 82%; CC50 ([2]; 72 h): 17 µM; AUC(0-t) [8]: 0.3 µM·h; bioavailability [9]: 8%; AUC(0-t) [10]: 7.8 µM·h; bioavailability [11]: 35%; INH (Cytochrome P450 2D6): > 20 µM; INH (Cytochrome P450 3A4): > 20 µM; INH (Cytochrome P450 2C9): > 20 µM; CC50 ([3]; 72 h): 25 µM; selectivity ratio [12]: > 550
Cc1nc(NCCCC(F)(F)F)nc(N[C@@H]2C[C@H](CO)[C@@H](O)[C@H]2O)c1-c1nc2ccccc2s1,30 nM,2230 ng/g,4 µM,3 µM,2.1 µM·h,–
